# From patent publication US20040152739A1, “Acyclic pyrazole compounds for the inhibition of mitogen activated protein kinase-activated protein kinase-2” (priority 2002, published 2004)
# Counter-ions that a name gives are not always drawn.
# Target: MK-2 (Homo sapiens, UniProt P49137)
# Assay: Determination of MK-2 IC50 (anion exchange resin capture assay, HSP-peptide phosphorylation)
# Assay type: biochemical
# Conditions: read-out: MK-2 Avg. IC50
# Description: The phosphorylation of HSP-peptide ([sequence]) by MAPKAPK2 was measured using an anion exchange resin capture assay method. […] The reaction was terminated and [γ^33P]ATP was removed from solution by the addition of 150 μl of AG 1×8 ion exchange resin in 900 mM sodium formate pH 3.0. A 50 μl aliquot of head volume was removed from the quenched reaction mixture and added to a 96-well plate, 150 μl of Microscint-40 (Packard) was added and the amount of phosphorylated-peptide was determined. Allow the Microscint to sit in the plates for 60 minutes prior to counting.
# Compounds are evaluated as potential inhibitors of the MK2 kinase by measuring their effects on MK2 phosphorylation of the peptide substrate. Compounds may be screened initially at two concentrations prior to determination of IC50 values. Screening results are expressed as percent inhibition at the concentrations of compound tested. For IC50 value determinations, compounds are tested at six concentrations in ten-fold serial dilutions with each concentration tested in triplicate. Results are expressed as IC50 values in micromolar. The assay is performed at a final concentration of 2% DMSO.
# Compounds are evaluated as potential inhibitors of the MK-2 kinase by measuring their effects on MK-2 phosphorylation of the peptide substrate. Compounds may be screened initially at two concentrations prior to determination of IC50 values. Screening results are expressed as percent inhibition at the concentrations of compound tested. For IC50 value determinations, compounds are tested at six concentrations in ten-fold serial dilutions with each concentration tested in triplicate. Results are expressed as IC50 values in micromolar. The assay is performed at a final concentration of 2% DMSO.
# Chain of MK-2 (P49137 whole entry, species assumed): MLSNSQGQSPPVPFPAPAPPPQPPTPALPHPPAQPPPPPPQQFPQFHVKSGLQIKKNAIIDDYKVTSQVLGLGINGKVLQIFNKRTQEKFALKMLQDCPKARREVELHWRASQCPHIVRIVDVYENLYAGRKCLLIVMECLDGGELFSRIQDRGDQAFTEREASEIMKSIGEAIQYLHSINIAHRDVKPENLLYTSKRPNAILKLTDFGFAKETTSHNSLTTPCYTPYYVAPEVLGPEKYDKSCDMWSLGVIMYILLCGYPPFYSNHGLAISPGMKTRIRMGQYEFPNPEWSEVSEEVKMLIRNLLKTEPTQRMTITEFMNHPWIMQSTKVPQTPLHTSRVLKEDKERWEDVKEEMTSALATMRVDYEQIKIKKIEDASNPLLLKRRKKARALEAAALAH
row,SMILES,IC50
1,"O=C1NCCn2nc(-c3ccnc(-c4ccc(F)cc4F)c3)cc21 [Example 89, dihydrochloride]",2.62 µM
2,Cc1cn(-c2cc(-c3cc4n(n3)CCCNC4=O)ccn2)cn1 [Example 90],2.76 µM
3,"O=C1NCCn2nc(-c3ccnc(-c4ccc[nH]4)c3)cc21 [Example 91, dihydrochloride]",2.79 µM
4,Cc1cc2cc(-c3cc(-c4cc5n(n4)CCNC5=O)ccn3)ccc2[nH]1 [Example 92],2.83 µM
5,O=C1NCCn2nc(-c3ccnc(-c4ccccc4F)c3)cc21 [Example 93],2.95 µM
6,"O=C1NCCn2nc(-c3ccnc(-c4ccc(CN5CCOCC5)cc4)c3)cc21 [Example 94, bis(trifluoroacetate)]",2.99 µM
7,"CCOC(=O)N1CCN(CCOc2cccc(-c3cc(-c4cc5n(n4)CCNC5=O)ccn3)c2)CC1 [Example 95, trifluoroacetate]",3.02 µM
8,"CCOC(=O)c1cc(-c2ccnc(-c3ccc(CO)cc3)c2)nn1CCN [Example 96, trifluoroacetate]",3.25 µM
9,"NCc1cccc(-c2cc(-c3cc4n(n3)CCNC4=O)ccn2)c1 [Example 97, trifluoroacetate]",3.25 µM
10,"O=C1NCCn2nc(-c3ccnc(-c4cccc(OCCN5CCCC5)c4)c3)cc21 [Example 98, 2-{2-[3-(2-pyrrolidin-1-ylethoxy)phenyl]pyridin-4-yl}-6,7-dihydropyrazolo[1,5-a]pyrazin-4(5H)-one]",3.27 µM
11,"CC(=O)Nc1cccc(-c2cc(-c3cc4n(n3)CCNC4=O)ccn2)c1 [Example 99, N-{3-[4-(4-oxo-4,5,6,7-tetrahydropyrazolo[1,5-a]pyrazin-2-yl)pyridin-2-yl]phenyl}acetamide]",3.31 µM

# Further lines, results first:
row,IC50,SMILES
1,3.44 µM,"CN(C)c1ccc(-c2cc(-c3cc4n(n3)CCCNC4=O)ccn2)cc1 [Example 100, 2-{2-[4-(dimethylamino)phenyl]pyridin-4-yl}-5,6,7,8-tetrahydro-4H-pyrazolo[1,5-a][1,4]diazepin-4-one trifluoroacetate]"
2,3.65 µM,"O=C1NCCn2nc(-c3ccnc(-c4ccc(C(=O)N5CCOCC5)cc4)c3)cc21 [Example 101, 2-{2-[4-(morpholin-4-ylcarbonyl)phenyl]pyridin-4-yl}-6,7-dihydropyrazolo[1,5-a]pyrazin-4(5H)-one]"
3,4.19 µM,"O=C(O)CCc1ccc(-c2cc(-c3cc4n(n3)CCNC4=O)ccn2)cc1 [Example 102, 3-{4-[4-(4-oxo-4,5,6,7-tetrahydropyrazolo[1,5-a]pyrazin-2-yl)pyridin-2-yl]phenyl}propanoic acid]"
4,4.2 µM,"O=C1NCCn2nc(-c3ccnc(-n4cccn4)c3)cc21 [Example 103, 2-[2-(1H-pyrazol-1-yl)pyridin-4-yl]-6,7-dihydropyrazolo[1,5-a]pyrazin-4(5H)-one]"
5,4.27 µM,"O=C1NCCn2nc(-c3ccnc(-c4nc5ccccc5s4)c3)cc21 [Example 104, 2-[2-(1,3-benzothiazol-2-yl)pyndin-4-yl]-6,7-dihydropyrazolo[1,5-a]pyrazin-4(5H)-one]"
6,4.31 µM,"O=C1NCCCn2nc(-c3ccnc(-n4cnc(-c5ccccc5)c4)c3)cc21 [Example 105, 2-[2-(4-phenyl-1H-imidazol-1-yl)pyridin-4-yl]-5,6,7,8-tetrahydro-4H-pyrazolo[1,5-a][1,4]diazepin-4-one trifluoroacetate]"
7,4.54 µM,"O=C1NCCCn2nc(-c3ccnc(-c4cccc(CO)c4)c3)cc21 [Example 106, 2-{2-[3-(hydroxymethyl)phenyl]pyridin-4-yl}-5,6,7,8-tetrahydro-4H-pyrazolo[1,5-a][1,4]diazepin-4-one trifluoroacetate]"
8,4.9 µM,"O=C1NC(CO)Cn2nc(-c3ccnc(C4CNc5ccccc5C4)c3)cc21 (centres unmarked) [Example 107, 6-(hydroxymethyl)-2-[2-(1,2,3,4-tetrahydroquinolin-3-yl)pyridin-4-yl]-6,7-dihydropyrazolo[1,5-a]pyrazin-4(5H)-one]"
9,4.98 µM,"CCOC(=O)c1cc(-c2ccnc(-c3cccc(O)c3)c2)nn1CCN [Example 108, ethyl 1-(2-aminoethyl)-3-[2-(3-hydroxyphenyl)pyridin-4-yl]-1H-pyrazole-5-carboxylate dihydrochloride]"
